Experiments:
[1] = system: U-937 (lymphoma); assay: 72-hour IC50 toward U-937 cancer cell line; type: cell-based; conditions: Homo sapiens
Excerpt: (§1) Compounds prepared according to the methods described herein have been screened for activity against various cancer cell lines.

[2] = system: HeLa (cervical); assay: 72-hour IC50 toward HeLa cancer cell line; type: cell-based; conditions: Homo sapiens
Excerpt: as §1

[3] = system: H1299 (NSC lung); assay: 72-hour IC50 toward H1299 cancer cell line; type: cell-based; conditions: Homo sapiens, NCI-H1299
Excerpt: as §1

[4] = system: MCF7 (breast); assay: 72-hour IC50 toward MCF7 cancer cell line; type: cell-based; conditions: Homo sapiens
Excerpt: as §1

[5] = system: B16F10 (melanoma); assay: 72-hour IC50 toward B16F10 cancer cell line; type: cell-based; conditions: Mus musculus, B16-F10
Excerpt: as §1

[6] = system: EL-4 (lymphoma); assay: 72-hour IC50 toward EL-4 cancer cell line; type: cell-based
Excerpt: as §1

[7] = system: A549 (lung); assay: 72-hour IC50 toward A549 cancer cell line; type: cell-based; conditions: Homo sapiens
Excerpt: as §1

[8] = system: caspase; assay: Western blot for caspase activation; type: cell-based; conditions: Western blot (FIG. 11)
[9] = system: EL-4 syngeneic mouse model; assay: Tumor volume in EL-4 syngeneic mouse model; type: in vivo; conditions: 2 treatments at 30 mg/kg over one week and a final treatment at 20 mg/kg after the first week, p=0.023, n=8
[10] = system: U-937 cells; assay: Non-apoptotic cell death of U-937 cells; type: cell-based; conditions: U-937 cells (FIG. 12)
Excerpt: FIG. 12. Non-apoptotic cell death of U-937 cells by compound GA-4.

SMILES | IC50 [1] [nM] | IC50 [2] [µM] | IC50 [3] [nM] | IC50 [4] [µM] | IC50 [5] [nM] | IC50 [6] [nM] | IC50 [7] [µM] | caspase activation [8] | reduction in tumor volume [9] [%] | non-apoptotic cell death [10]
C=C1C[C@]23C[C@@]1(O)CC[C@H]2[C@@]12C=CC(=O)C(C)(C(=O)O1)[C@H]2[C@@H]3C(=O)OC [GA-4] | 560 ± 180 | 1.14 ± 0.03 | 2400 ± 800 | 4.8 ± 1.3 | 1000 ± 400 | 850 ± 90 | 5.9 ± 0.05 | lack of caspase activation | 43 | remarkable amounts of non-apoptotic cell death
COC(=O)[C@H]1[C@@H]2C3(C)C(=O)C=C[C@@]2(OC3=O)[C@@H]2CC[C@@]3(CBr)C[C@]21CC3=O [GA-81] | 1780 ± 90 | 4.9 ± 0.09 | – | – | – | – | 4.5 ± 0.09 | – | – | –
